The values below come from PubChem BioAssay AID1033 (Sanford-Burnham Center for Chemical Genomics, 2008).

Activity calls are given as the source filed them. The rule behind the calls is not given here. Where only a bound is given, the exact number is not on record here.

Chain of Chaperone protein DnaK (Escherichia coli (strain K12)) (P0A6Y8 whole entry, looked up, the tested form may be a part): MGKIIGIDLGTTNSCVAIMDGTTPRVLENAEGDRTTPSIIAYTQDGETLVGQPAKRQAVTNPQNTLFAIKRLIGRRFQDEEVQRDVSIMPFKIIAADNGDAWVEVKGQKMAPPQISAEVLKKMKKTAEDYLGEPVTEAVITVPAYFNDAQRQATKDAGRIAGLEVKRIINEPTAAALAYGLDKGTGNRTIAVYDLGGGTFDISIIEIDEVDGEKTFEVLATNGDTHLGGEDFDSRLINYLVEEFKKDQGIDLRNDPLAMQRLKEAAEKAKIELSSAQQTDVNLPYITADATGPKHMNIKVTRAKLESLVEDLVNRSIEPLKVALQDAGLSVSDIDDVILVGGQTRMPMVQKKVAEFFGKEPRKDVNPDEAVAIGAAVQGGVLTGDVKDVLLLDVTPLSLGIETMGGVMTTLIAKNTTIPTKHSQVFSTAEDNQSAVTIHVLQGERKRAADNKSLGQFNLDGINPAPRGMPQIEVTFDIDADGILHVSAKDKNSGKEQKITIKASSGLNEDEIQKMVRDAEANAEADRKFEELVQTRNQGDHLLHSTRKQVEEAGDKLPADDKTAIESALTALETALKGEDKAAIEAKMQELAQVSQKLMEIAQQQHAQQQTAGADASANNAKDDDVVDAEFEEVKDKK

The test concerns the target Chaperone protein DnaK (Escherichia coli (strain K12)) (UniProt P0A6Y8). As to the kind of experiment: binders of DnaK substrate-binding domain, biophysical, NMR, chaperone (AID 1033). To be noted: Purified DnaK SBD, NMR ligand binding.
Consider `NCc1ccc2c(c1)OCCCO2`, for which the Kd is > 4 mM (inactive).
Next, `COC1(C)CCC2OC2(C)CCC2C1CC2(C)C` (stereo not given): > 4 mM (inactive); `CC(=O)N1CCc2cc(NC(=O)c3ccc(C)cc3)ccc21`: > 4 mM (inactive); `COCc1nn2c(N)c(C#N)cnc2c1-c1ccccc1`: > 4 mM (inactive).
The figure for `O=C(Nc1ccccc1)c1cnc2n(c1=O)CCS2` is > 4 mM (inactive).
`O=C(NN1CCOCC1)c1cccs1`: the Kd was > 4 mM (inactive).
In the case of `O=c1c2c(nc3nc(Cc4ccccc4)[nH]n13)CCC2`, the Kd is > 4 mM (inactive).
Consider `CC(=O)OC1CCC2(C)C3CC(=O)C4(C)C(CC5OC6(CCC(C)CO6)[C@@H](C)C54)C3CC[C@H]2C1` (stereo not given in full), for which the Kd is > 4 mM (inactive).
Consider `COc1ccc(C2(C)CC(=O)NC2=O)cc1` (stereo not given), for which the Kd was > 4 mM (inactive).
The figure for `O=C1CNC(=O)N1Cc1ccc(Br)cc1` is > 4 mM (inactive); for `S=C(Cc1cccnc1)N1CCOCC1` it is > 4 mM (inactive).
For `CC(=O)c1cc2c(s1)SCC(=O)N2`, the Kd is > 4 mM (inactive).
Next, `C[C@@H]1O[C@@H](O[C@H]2C[C@@H](O)[C@]3(CO)C4C(CC[C@]3(O)C2)[C@@]2(O)CC[C@H](C3=CC(=O)OC3)[C@@]2(C)C[C@H]4O)[C@H](O)[C@H](O)[C@H]1O` (stereo not given in full): > 4 mM (inactive); `CSc1nnc(-c2ccccc2NC(C)=O)o1`: > 4 mM (inactive).
Next, `COC(=O)Cc1cccc(OC)c1`: > 4 mM (inactive); `CCC(=O)n1nc(-c2ccco2)nc1N`: > 4 mM (inactive).
In the case of `CS/C(N)=C\C(C)=O`, the Kd was > 4 mM (inactive).
The figure for `CCCn1cnn2c(=O)cc(C)nc12` is > 4 mM (inactive); for `O=c1cccc2n1C[C@H]1CNCC2C1` it is > 4 mM (inactive).
The figure for `CC(=O)Nc1cccc(NC(=O)c2ccco2)c1` is > 4 mM (inactive); for `O=C(Nc1cccc2ncccc12)c1cccnc1` it is > 4 mM (inactive).
Turning to `NC(=O)c1ccc(NC(=O)C2CC2)cc1`, the Kd is > 4 mM (inactive).
The figure for `OCc1ccc(-c2cccs2)s1` is > 4 mM (inactive); for `CSc1ccccc1NC(=O)c1cccnc1` it is > 4 mM (inactive).
As to `Cc1cc(C)c(C#N)c(N2CCCC2)n1`, the Kd was > 4 mM (inactive).
As for `Cc1nc2ccc(NC(=O)N3CCOCC3)cc2s1`, the Kd was > 4 mM (inactive).
The figure for `CN1CCCCC1c1ccc(-c2cccnc2)nc1` (stereo not given) is > 4 mM (inactive); for `Nc1cc(C(F)(F)F)ccc1N1CCOCC1` it is > 4 mM (inactive); for `Cc1cc(OC(=O)c2ccco2)c([N+](=O)[O-])c(=O)[nH]1` it is > 4 mM (inactive).
With `CCCCCCCCCCCC[C@H](C(=O)O)[C@@H](C)C(=O)O`, the Kd was > 4 mM (inactive).
As to `COc1cc(/C=C/C(=O)/C=C(O)/C=C/c2ccc(O)c(OC)c2)ccc1O`, the Kd was > 4 mM (inactive).
Take `CNc1nnc(Cc2csc(N)n2)s1`: the Kd is > 4 mM (inactive).
The figure for `N#CCCn1ccnc1-c1ccccc1` is > 4 mM (inactive); for `CCNS(=O)(=O)c1cc(Br)ccc1OC` it is > 4 mM (inactive).
The figure for `Nc1ccc(-n2cncn2)cc1` is > 4 mM (inactive); for `O=C1C2CC=C(Cl)CC2C(=O)N1c1ccccc1O` (stereo not given) it is > 4 mM (inactive).
The figure for `CC12OC(=O)CC3C(C)(C)[C@H](O)C=C[C@]3(C)C1CC[C@]1(C)C2=CC(=O)O[C@H]1c1ccoc1` (stereo not given in full) is > 4 mM (inactive); for `Cn1c(SCc2ccon2)nc2ccccc2c1=O` it is > 4 mM (inactive); for `CCCN1CCC(N2CCC(O)CC2)CC1` it is > 4 mM (inactive).
Regarding `Cc1nc2nc(Cc3ccccc3)[nH]n2c(=O)c1Cl`, the Kd is > 4 mM (inactive).
The figure for `COc1cccc(N2CCNCC2)c1` is > 4 mM (inactive); for `O=C(O)C1CCN(c2ccc(C(F)(F)F)cn2)CC1` it is > 4 mM (inactive).
The figure for `O=S1(=O)CCC(NC(=S)Nc2ccccn2)C1` (stereo not given) is > 4 mM (inactive); for `NS(=O)(=O)c1ccc(NC(=O)C(F)(F)F)cc1` it is > 4 mM (inactive); for `COc1cc(C(=S)N2CCOCC2)ccc1O` it is > 4 mM (inactive).
Next, `CN(C)C(=O)CSc1nc(N)cc(=O)[nH]1`: > 4 mM (inactive); `Nc1ccc(C2SCCS2)cc1`: > 4 mM (inactive).
`CC(=O)Nc1ccc(Nc2nnc(C)c(=O)[nH]2)cc1`: the Kd is > 4 mM (inactive).
As to `O=C(NCc1ccncc1)c1cccc(F)c1`, the Kd was > 4 mM (inactive).
The figure for `O=C(NCc1ccco1)c1nc2ncccn2n1` is > 4 mM (inactive); for `COc1cc(OC)c(-c2c(OC)cc(OC)cc2OC)c(OC)c1` it is > 4 mM (inactive); for `Cc1n[nH]c(C)c1CC(=O)O` it is > 4 mM (inactive).
As to `NC(=O)CC1NC(=O)c2ccccc21` (stereo not given), the Kd was > 4 mM (inactive).
On to `COc1cc(OC)c2c(c1Cl)OC1(C2=O)C(O)=CC(=O)CC1C` (stereo not given), for which the Kd is > 4 mM (inactive).
Next, `CC(=O)NC1(NC(C)=O)CCN(C)CC1`: > 4 mM (inactive); `COc1cc([C@@H]2c3cc4c(c(O)c3C[C@H]3COC(=O)[C@@H]32)OCO4)cc(OC)c1OC`: > 4 mM (inactive).
Next, `O=C1CCC(=O)N1c1ccc(O)cc1`: > 4 mM (inactive).
Regarding `O=C(O)c1ccc(CN2CCCCC2)o1`, the Kd was > 4 mM (inactive).
Take `O=C(Nc1cnccn1)c1ccncc1`: the Kd is > 4 mM (inactive).
As to `CC(=O)Nc1nnc(-c2ccccc2)o1`, the Kd was > 4 mM (inactive).
As for `Cc1occc1C(=O)NC1CCN(C)CC1`, the Kd was > 4 mM (inactive).
Next, `Cc1cc(C(=O)Nc2sc3c(c2C#N)CCC3)no1`: > 4 mM (inactive); `O=C(O)Cn1cc(C(=O)C2CC2)c2ccccc21`: > 4 mM (inactive).
As for `N[C@@H](CCC(=O)N[C@@H](CS)C(=O)NCC(=O)O)C(=O)O`, the Kd was > 4 mM (inactive).
For `CN1CN(Cc2ccccc2)CN/C1=N/[N+](=O)[O-]`, the Kd was > 4 mM (inactive).
For `Nc1ccc2nsnc2c1`, the Kd is > 4 mM (inactive).
As for `CC(=O)NC(c1ccccc1)c1cccnc1` (stereo not given), the Kd is > 4 mM (inactive).
In the case of `Fc1ccc(-c2n[nH]c(=S)n2CC2CCCO2)cc1` (stereo not given), the Kd is > 4 mM (inactive).
Consider `OC[C@H]1O[C@@H](Oc2ccc(O)cc2)[C@H](O)[C@@H](O)[C@@H]1O`, for which the Kd is > 4 mM (inactive).
The figure for `CC(C)NC(=S)NCc1cnn(C)c1` is > 4 mM (inactive); for `Cn1cnc2c(=S)[nH]c(=O)n(Cc3ccccc3)c21` it is > 4 mM (inactive); for `O=C(Nc1ccon1)c1csc2ccccc12` it is > 4 mM (inactive).
The figure for `Cc1ccc(SCc2nc(-c3ccncc3)no2)cc1` is > 4 mM (inactive).
On to `Cn1cc(Cl)c(C(=O)Nc2ccncc2)n1`, for which the Kd was > 4 mM (inactive).
Next, `O=c1c(Cl)c(NCCO)ncn1-c1ccccc1`: > 4 mM (inactive).
Next, `CNC(=O)C1CCCN(S(C)(=O)=O)C1` (stereo not given): > 4 mM (inactive); `O=c1[nH]cc(NCc2ccccc2)c(=O)[nH]1`: > 4 mM (inactive).
The figure for `Cc1ccc(C(=O)N2CCC(C(N)=O)CC2)c(Cl)c1` is > 4 mM (inactive); for `CC(=O)c1cccc(NC(=O)Nc2c(C)nn(C)c2C)c1` it is > 4 mM (inactive); for `COC(=O)c1cccc(C(F)(F)F)c1` it is > 4 mM (inactive).
Turning to `CC12CCCC(O)(C1)C1CC(C)(C)C1CC2` (stereo not given), the Kd is > 4 mM (inactive).
With `CSc1ccccc1NC(=O)c1cnccn1`, the Kd was > 4 mM (inactive).
The figure for `O=C(O)c1ccc(N2CCOCC2)cc1` is > 4 mM (inactive).
In the case of `Cc1nc2cc(NC(=O)Nc3nccs3)ccc2n1C`, the Kd was > 4 mM (inactive).
For `CC(O)c1nc2ccccc2[nH]1` (stereo not given), the Kd was > 4 mM (inactive).
As to `O=C(O)C1Cc2c([nH]c3ccccc23)CN1` (stereo not given), the Kd is > 4 mM (inactive).
Next, `CC(C)[C@@H]1CC[C@@H](C)CC1=O`: > 4 mM (inactive); `C/C=C(\C)c1nnc(NC(=O)c2ccco2)s1`: > 4 mM (inactive); `CC1(C)Cc2nc3n[nH]c(N)c3cc2CO1`: > 4 mM (inactive).
As to `Cc1cc(C)c(C(N)=O)c(=S)[nH]1`, the Kd was > 4 mM (inactive).
As for `COc1c2c(cc3c1OCO3)C13C=C[C@H](OC)CC1N(C2)CC3O` (stereo not given in full), the Kd is > 4 mM (inactive).
Next, `O=C(Nc1ccc(Cl)cc1)N1CCCC1`: > 4 mM (inactive); `S=c1[nH]nc(-c2cccnc2)n1C1CCCCC1`: > 4 mM (inactive).
The figure for `COc1ccccc1NC(=O)c1ccc(C)s1` is > 4 mM (inactive); for `CN(C)CCNC(CC(=O)Nc1ccccc1)C(=O)O` (stereo not given) it is > 4 mM (inactive).
As to `O=C(CC1NCCNC1=O)Nc1ccccc1` (stereo not given), the Kd is > 4 mM (inactive).
The figure for `Cn1cccc1C=C1C(=O)NC(=S)NC1=O` is > 4 mM (inactive).
For the compound `COC(=O)N(c1ccccc1)P1(=S)OCCO1`, the Kd is > 4 mM (inactive).
The figure for `CC(=O)Oc1ccc(-c2nc(-c3cccnc3)no2)cc1` is > 4 mM (inactive); for `CCCCN1C(=O)C2CC/C(=N/O)CC2C1=O` (stereo not given) it is > 4 mM (inactive); for `Cc1ccccc1NS(=O)(=O)c1ccc(F)cc1` it is 0.2 mM.
Regarding `Nc1cccc2nsnc12`, the Kd was > 4 mM (inactive).
With `CC(=O)Nc1nnc(-c2ccco2)o1`, the Kd is > 4 mM (inactive).
For `CCOc1ccc(Cl)cc1S(=O)(=O)N1CCCC1`, the Kd is > 4 mM (inactive).
On to `CN1C(=O)CC(=O)N(C)c2ccccc21`, for which the Kd is > 4 mM (inactive).
